# Measured values as given in US20250136577A1, “HETEROCYCLIC DERIVATIVES AS MALT1 INHIBITORS” (C4X Discovery Limited, priority 2022, published 2025).
# Target: MALT1-GS-Ub (6-His-hMALT-1 residues 339-715 fused to ubiquitin) (Homo sapiens (Human), UniProt Q9UDY8)
# Test: MALT1 Protease Assay 1 (Assay 1), cleavage of fluorogenic tetrapeptide substrate
# Type: biochemical
# Conditions: MALT1-GS-Ub 300-600 nM, Ac-LVSR-AMC 100 μM, 30 min preincubation, 60 min read
# Procedure: MALT1 Protease Assay 1 (Assay 1)
# (§1) MALT1 protease activity was assessed in vitro by measuring the cleavage of a fluorogenic tetrapeptide substrate.
# A protein (MALT1-GS-Ub) comprising 6-His-hMALT-1 (residues 339-715), fused to ubiquitin with an 8× GGS linker, was expressed in E. coli, and purified using chitin resin to remove contaminants followed by affinity chromatography purification and size-exclusion chromatography, according to standard protocols.
# Briefly, MALT1-GS-Ub (300-600 nM) was incubated with substrate (Ac-LVSR-AMC, 100 μM) in reaction buffer comprising 50 mM HEPES (pH7.0), 25 mM KCl, 0.1% (v/v) CHAPS and 1 mM TCEP.
# (§2) Test compounds dissolved in DMSO were dispensed into assay plates (384-well, black, shallow ProxiPlates). 7 μl enzyme solution was added and incubated at room temperature for 30 minutes to allow compound binding to occur. 2 μl substrate solution was then added and the fluorescence (excitation 360 nm, emission 460 nm) read every 15 minutes using a suitable plate reader. Final assay DMSO concentration was 1%. Linearity over 60 minutes was confirmed, and assay signal was calculated by subtracting raw counts at time 0 from those at 60 minutes. % inhibition was calculated for each well, using no enzyme for 100% inhibition controls and no compound for 0% inhibition controls. IC50 values were calculated using GraphPad Prism using a 4-parameter non-linear regression curve fit.
# MALT1-GS-Ub (6-His-hMALT-1 residues 339-715 fused to ubiquitin), sequence (Q9UDY8 other isoform, or with tags, fused parts or gaps): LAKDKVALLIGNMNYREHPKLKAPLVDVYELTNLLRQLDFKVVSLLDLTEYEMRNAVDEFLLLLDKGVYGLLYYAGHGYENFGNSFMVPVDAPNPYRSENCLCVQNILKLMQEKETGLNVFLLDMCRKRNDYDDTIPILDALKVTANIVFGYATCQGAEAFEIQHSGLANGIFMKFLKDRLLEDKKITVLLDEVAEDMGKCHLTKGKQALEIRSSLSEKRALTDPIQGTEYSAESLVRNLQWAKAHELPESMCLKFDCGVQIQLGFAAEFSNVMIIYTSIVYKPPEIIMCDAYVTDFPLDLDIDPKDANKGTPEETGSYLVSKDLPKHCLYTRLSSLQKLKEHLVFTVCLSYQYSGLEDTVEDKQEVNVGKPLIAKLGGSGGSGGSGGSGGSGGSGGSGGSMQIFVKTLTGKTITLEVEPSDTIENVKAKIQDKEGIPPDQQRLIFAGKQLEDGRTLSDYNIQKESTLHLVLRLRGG
row,Compound,IC50 [nM]
1,"CN1CCN(C(=O)Nc2cnc(-n3nccn3)c(Cl)c2)c2cncc(Br)c21 [Example 29, 8-Bromo-N-(5-chloro-6-(2H-1,2,3-triazol-2-yl)pyridin-3-yl)-1-methyl-2,3-dihydropyrido[3,4-b]pyrazine-4 (1H)-carboxamide]",3800
2,"CN1CCN(C(=O)Nc2cnc(-n3nccn3)c(Cl)c2)c2cccc(Br)c21 [Example 16, 5-Bromo-N-(5-chloro-6-(2H-1,2,3-triazol-2-yl)pyridin-3-yl)-4-methyl-3,4-dihydroquinoxaline-1 (2H)-carboxamide]",2500
3,"O=C(Nc1cnc(-n2nccn2)c(Cl)c1)N1CCN(C2CCOCC2)c2c(Br)cncc21 [Example 33, 8-Bromo-N-(5-chloro-6-(2H-1,2,3-triazol-2-yl)pyridin-3-yl)-1-(tetrahydro-2H-pyran-4-yl)-2,3-dihydropyrido[3,4-b]pyrazine-4 (1H)-carboxamide]",7600
4,"CC1(C)CN(C(=O)Nc2cnc(-n3nccn3)c(Cl)c2)c2cccc(Br)c2O1 [Example 13, 8-Bromo-N-(5-chloro-6-(2H-1,2,3-triazol-2-yl)pyridin-3-yl)-2,2-dimethyl-2,3-dihydro-4H-benzo[b][1,4]oxazine-4-carboxamide]",1300
5,"O=C(Nc1cnc(-n2nccn2)c(Cl)c1)N1CCCc2c(Br)cccc21 [Example 1, 5-Bromo-N-(5-chloro-6-(2H-1,2,3-triazol-2-yl)pyridin-3-yl)-3,4-dihydroquinoline-1 (2H)-carboxamide]",4500
6,"O=C(Nc1cnc(-n2nccn2)c(C(F)(F)F)c1)N1CCCc2c(Br)cccc21 [Example 2, N-(6-(2H-1,2,3-Triazol-2-yl)-5-(trifluoromethyl)pyridin-3-yl)-5-bromo-3,4-dihydroquinoline-1 (2H)-carboxamide]",3200

# Target: FL hMALT1 enzyme (Homo sapiens (Human), UniProt Q9UDY8)
# Sequence (Q9UDY8 whole entry): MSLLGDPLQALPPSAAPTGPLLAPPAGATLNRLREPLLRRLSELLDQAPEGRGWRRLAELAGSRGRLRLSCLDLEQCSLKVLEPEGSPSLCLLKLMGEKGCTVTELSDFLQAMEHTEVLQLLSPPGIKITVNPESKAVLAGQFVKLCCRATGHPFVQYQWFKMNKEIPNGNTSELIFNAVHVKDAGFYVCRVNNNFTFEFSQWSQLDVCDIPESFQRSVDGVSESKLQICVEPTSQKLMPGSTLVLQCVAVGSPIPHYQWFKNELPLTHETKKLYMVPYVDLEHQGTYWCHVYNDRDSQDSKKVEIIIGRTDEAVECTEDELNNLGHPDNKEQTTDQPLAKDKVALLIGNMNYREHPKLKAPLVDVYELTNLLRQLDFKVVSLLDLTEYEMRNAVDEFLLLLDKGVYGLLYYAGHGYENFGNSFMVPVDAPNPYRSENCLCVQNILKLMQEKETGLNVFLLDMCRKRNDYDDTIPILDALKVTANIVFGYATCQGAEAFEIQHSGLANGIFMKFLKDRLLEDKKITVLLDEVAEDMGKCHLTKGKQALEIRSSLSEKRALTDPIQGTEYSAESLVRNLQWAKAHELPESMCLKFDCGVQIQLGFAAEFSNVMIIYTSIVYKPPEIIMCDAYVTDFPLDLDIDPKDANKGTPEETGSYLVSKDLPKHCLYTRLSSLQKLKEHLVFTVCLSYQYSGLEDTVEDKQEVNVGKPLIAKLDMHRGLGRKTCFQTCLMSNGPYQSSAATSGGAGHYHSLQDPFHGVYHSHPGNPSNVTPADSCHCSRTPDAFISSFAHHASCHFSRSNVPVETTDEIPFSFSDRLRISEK
# Test: MALT1 Protease Assay 2 (Assay 2), higher sensitivity, cleavage of fluorogenic tetrapeptide substrate
# Type: biochemical
# Conditions: FL hMALT1 1-10 nM, Ac-LVSR-AMC 100 μM, 0.7 M sodium citrate, 30 min preincubation, 60 min read
# Procedure: MALT1 Protease Assay 2 (Assay 2)
# as §1
# For a higher sensitivity assay, commercially available FL hMALT1 enzyme (Abcam, 1-10 nM) was incubated with substrate (Ac-LVSR-AMC, 100 μM) in reaction buffer comprising 50 mM HEPES (pH7.0), 25 mM KCl, 0.1% (v/v) CHAPS, 1 mM TCEP and 0.7 M sodium citrate.
# as §2
row,Compound,IC50 [nM]
1,"CN1CCN(C(=O)Nc2cnc(-n3nccn3)c(Cl)c2)c2cncc(Br)c21 [Example 29, 8-Bromo-N-(5-chloro-6-(2H-1,2,3-triazol-2-yl)pyridin-3-yl)-1-methyl-2,3-dihydropyrido[3,4-b]pyrazine-4 (1H)-carboxamide]",> 3000
2,"CN1CCN(C(=O)Nc2cnc(-n3nccn3)c(Cl)c2)c2cccc(Br)c21 [Example 16, 5-Bromo-N-(5-chloro-6-(2H-1,2,3-triazol-2-yl)pyridin-3-yl)-4-methyl-3,4-dihydroquinoxaline-1 (2H)-carboxamide]",900
3,"Cc1ncc2c(c1C#N)OC(C(F)(F)F)CN2C(=O)Nc1cnc(C(=O)N(C)C2CC2)c(C(F)F)c1 (single isomer, unassigned) [Example 66, 8-Cyano-N-(6-(cyclopropyl(methyl)carbamoyl)-5-(difluoromethyl)pyridin-3-yl)-7-methyl-2-(trifluoromethyl)-2,3-dihydro-4H-pyrido[4,3-b][1,4]oxazine-4-carboxamide]",9100
4,"O=C(Nc1cnc(-n2nccn2)c(Cl)c1)N1CCN(C2CCOCC2)c2c(Br)cncc21 [Example 33, 8-Bromo-N-(5-chloro-6-(2H-1,2,3-triazol-2-yl)pyridin-3-yl)-1-(tetrahydro-2H-pyran-4-yl)-2,3-dihydropyrido[3,4-b]pyrazine-4 (1H)-carboxamide]",1500
5,"CC1(C)CN(C(=O)Nc2cnc(-n3nccn3)c(Cl)c2)c2cccc(Br)c2O1 [Example 13, 8-Bromo-N-(5-chloro-6-(2H-1,2,3-triazol-2-yl)pyridin-3-yl)-2,2-dimethyl-2,3-dihydro-4H-benzo[b][1,4]oxazine-4-carboxamide]",1300
6,"CC1CN(C(=O)Nc2cnc(-n3nccn3)c(Cl)c2)c2cncc(Br)c2O1 (single isomer, unassigned) [Example 44, 8-Bromo-N-(5-chloro-6-(2H-1,2,3-triazol-2-yl)pyridin-3-yl)-2-methyl-2,3-dihydro-4H-pyrido[4,3-b][1,4]oxazine-4-carboxamide]",330
7,"Cc1ncc2c(c1C#N)OC(C(F)(F)F)CN2C(=O)Nc1cnc(C(=O)N(C)C2CC2)c(C(F)F)c1 (single isomer, unassigned) [Example 67, 8-Cyano-N-(6-(cyclopropyl(methyl)carbamoyl)-5-(difluoromethyl)pyridin-3-yl)-7-methyl-2-(trifluoromethyl)-2,3-dihydro-4H-pyrido[4,3-b][1,4]oxazine-4-carboxamide]",146
8,"CC1CN(C(=O)Nc2cnc(-n3nccn3)c(Cl)c2)c2cncc(Br)c2O1 (single isomer, unassigned) [Example 45, 8-Bromo-N-(5-chloro-6-(2H-1,2,3-triazol-2-yl)pyridin-3-yl)-2-methyl-2,3-dihydro-4H-pyrido[4,3-b][1,4]oxazine-4-carboxamide]",200
9,"N#CC1Cc2c(Br)cncc2N(C(=O)Nc2cnc(-n3nccn3)c(Cl)c2)C1 (stereo not shown) [Example 58, 5-Bromo-N-(5-chloro-6-(2H-1,2,3-triazol-2-yl)pyridin-3-yl)-3-cyano-3,4-dihydro-1,7-naphthyridine-1 (2H)-carboxamide]",1290
10,"Cc1ncc2c(c1C#N)OC(C(F)(F)F)CN2C(=O)Nc1cnc(-n2nccn2)c(C(F)(F)F)c1 (single isomer, unassigned) [Example 65, N-(6-(2H-1,2,3-triazol-2-yl)-5-(trifluoromethyl)pyridin-3-yl)-8-cyano-7-methyl-2-(trifluoromethyl)-2,3-dihydro-4H-pyrido[4,3-b][1,4]oxazine-4-carboxamide]",17
11,"COc1cncc2c1OC(C(F)(F)F)CN2C(=O)Nc1cnc(-n2nccn2)c(Cl)c1 (single isomer, unassigned) [Example 56, N-(5-Chloro-6-(2H-1,2,3-triazol-2-yl)pyridin-3-yl)-8-methoxy-2-(trifluoromethyl)-2,3-dihydro-4H-pyrido[4,3-b][1,4]oxazine-4-carboxamide]",5100
12,"N#Cc1cncc2c1OC(C(F)(F)F)CN2C(=O)Nc1cnc(-n2nccn2)c(Cl)c1 (single isomer, unassigned) [Example 54, N-(5-Chloro-6-(2H-1,2,3-triazol-2-yl)pyridin-3-yl)-8-cyano-2-(trifluoromethyl)-2,3-dihydro-4H-pyrido[4,3-b][1,4]oxazine-4-carboxamide]",8200
13,"Cc1ncc2c(c1C#N)OC(C(F)(F)F)CN2C(=O)Nc1ccnc(C(F)(F)F)c1 (stereo not shown) [Example 59, 8-Cyano-7-methyl-2-(trifluoromethyl)-N-(2-(trifluoromethyl)pyridin-4-yl)-2,3-dihydro-4H-pyrido[4,3-b][1,4]oxazine-4-carboxamide]",820
14,"Cc1ncc2c(c1Br)OC(C(F)(F)F)CN2C(=O)Nc1cnc(-n2nccn2)c(Cl)c1 (single isomer, unassigned) [Example 42, 8-Bromo-N-(5-chloro-6-(2H-1,2,3-triazol-2-yl)pyridin-3-yl)-7-methyl-2-(trifluoromethyl)-2,3-dihydro-4H-pyrido[4,3-b][1,4]oxazine-4-carboxamide]",3400
15,"Cc1ncc2c(c1C#N)OC(C(F)(F)F)CN2C(=O)Nc1cnc(-n2nccn2)c(Cl)c1 (single isomer, unassigned) [Example 52, N-(5-Chloro-6-(2H-1,2,3-triazol-2-yl)pyridin-3-yl)-8-cyano-7-methyl-2-(trifluoromethyl)-2,3-dihydro-4H-pyrido[4,3-b][1,4]oxazine-4-carboxamide]",7600
16,"O=C(Nc1cnc(-n2nccn2)c(Cl)c1)N1CC(C2CC2)Oc2c(Br)cncc21 (single isomer, unassigned) [Example 50, 8-Bromo-N-(5-chloro-6-(2H-1,2,3-triazol-2-yl)pyridin-3-yl)-2-cyclopropyl-2,3-dihydro-4H-pyrido[4,3-b][1,4]oxazine-4-carboxamide]",240
17,"COc1cncc2c1OC(C(F)(F)F)CN2C(=O)Nc1cnc(-n2nccn2)c(Cl)c1 (single isomer, unassigned) [Example 57, N-(5-Chloro-6-(2H-1,2,3-triazol-2-yl)pyridin-3-yl)-8-methoxy-2-(trifluoromethyl)-2,3-dihydro-4H-pyrido[4,3-b][1,4]oxazine-4-carboxamide]",170
18,"Cc1ncc2c(c1C#N)OC(C(F)(F)F)CN2C(=O)Nc1cnc(-n2nccn2)c(C#N)c1 (single isomer, unassigned) [Example 62, 8-Cyano-N-(5-cyano-6-(2H-1,2,3-triazol-2-yl)pyridin-3-yl)-7-methyl-2-(trifluoromethyl)-2,3-dihydro-4H-pyrido[4,3-b][1,4]oxazine-4-carboxamide]",6500
19,"Cc1ncc2c(c1C#N)OC(C(F)(F)F)CN2C(=O)Nc1cnc(-n2nccn2)c(C#N)c1 (single isomer, unassigned) [Example 63, 8-Cyano-N-(5-cyano-6-(2H-1,2,3-triazol-2-yl)pyridin-3-yl)-7-methyl-2-(trifluoromethyl)-2,3-dihydro-4H-pyrido[4,3-b][1,4]oxazine-4-carboxamide]",104
20,"O=C(Nc1cnc(-n2nccn2)c(Cl)c1)N1CC(C2CC2)Oc2c(Br)cncc21 (single isomer, unassigned) [Example 51, 8-Bromo-N-(5-chloro-6-(2H-1,2,3-triazol-2-yl)pyridin-3-yl)-2-cyclopropyl-2,3-dihydro-4H-pyrido[4,3-b][1,4]oxazine-4-carboxamide]",250
21,"Cc1ncc2c(c1C#N)OC(C(F)(F)F)CN2C(=O)Nc1cnc(OC(F)F)c(Cl)c1 (single isomer, unassigned) [Example 60, N-(5-Chloro-6-(difluoromethoxy)pyridin-3-yl)-8-cyano-7-methyl-2-(trifluoromethyl)-2,3-dihydro-4H-pyrido[4,3-b][1,4]oxazine-4-carboxamide]",3820
22,"Cc1ncc2c(c1C#N)OC(C(F)(F)F)CN2C(=O)Nc1cnc(-n2nccn2)c(C(F)(F)F)c1 (single isomer, unassigned) [Example 64, N-(6-(2H-1,2,3-triazol-2-yl)-5-(trifluoromethyl)pyridin-3-yl)-8-cyano-7-methyl-2-(trifluoromethyl)-2,3-dihydro-4H-pyrido[4,3-b][1,4]oxazine-4-carboxamide]",2120
